These results are taken from ChEMBL document CHEMBL1130170, “Orally active trifluoromethyl ketone inhibitors of human leukocyte elastase” (J Med Chem, 1997).

Where a SMILES comes first, the peptide text is derived from it. [ ]: non-standard residue; d: D form. The star is where a group is joined. ξ: configuration not given here. Cbz = O=C(OCc1ccccc1)*; ξV = CC(C)C(N)C(=O)O; CF3 = FC(F)(F)*; Moc = COC(=O)*

For experiment [1], the system named is Cricetinae gen. sp. The experiment is described as follows: Percent inhibition of elastase-induced lung damage by 10 mg/kg dosed orally, 30 minutes prior to the instillation of 50 ug of elastase. The class given is functional, Cricetulus griseus. The settings on record: Cricetinae gen. sp., po.
Experiment [2] concerns the target T1, Neutrophil elastase (Homo sapiens, UniProt P08246).
T1 sequence (P08246 whole entry): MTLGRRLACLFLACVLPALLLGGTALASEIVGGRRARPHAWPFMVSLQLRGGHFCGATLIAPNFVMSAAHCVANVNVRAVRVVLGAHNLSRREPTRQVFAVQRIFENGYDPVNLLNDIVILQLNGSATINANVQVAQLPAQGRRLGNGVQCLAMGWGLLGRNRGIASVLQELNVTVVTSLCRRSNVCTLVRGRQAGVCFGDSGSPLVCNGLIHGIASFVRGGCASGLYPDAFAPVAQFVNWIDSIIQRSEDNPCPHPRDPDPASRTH
In words: Binding affinity for human leukocyte elastase.

For experiment [3], the system named is Cricetinae gen. sp. In words: Effective dose in the Acute Hemarrhagic Assay model after oral administration. The experiment is classed as functional, Cricetulus griseus.

As a reminder, the inhibition in vivo is the change of the read-out against control, counted positive when it falls. A higher inhibition in vivo goes with a strong effect. Turning to `COC(=O)N[C@H](C(=O)N1CCC[C@H]1C(=O)NC(C(=O)C(F)(F)F)C(C)C)C(C)C` (stereo partly drawn) (Moc-Val-Pro-[ξV]-CF3), in experiment [1], 10 mg/kg produced 92% inhibition in vivo.

The term Ki denotes a dissociation constant, usually derived from enzyme kinetics or from competition with a known ligand. High values mean a looser hold on the target, low ones a stronger hold on the target. `CCCCOC(=O)NCC(F)(F)C(=O)[C@@H](NC(=O)[C@@H]1CCCN1C(=O)[C@@H](NC(=O)OCc1ccccc1)C(C)C)C(C)C` returned an inhibition in vivo at 10 mg/kg in experiment [1] of 0%. In experiment [2], this compound returned a Ki of 1.1 nM.

As for `COc1ccc(C(=O)N[C@H](C(=O)N2CCC[C@H]2C(=O)N[C@H](C(=O)C(F)(F)F)C(C)C)C(C)C)cc1` (stereo in doubt; 1a), testing at 10 mg/kg in experiment [1] gave an inhibition in vivo of 70%.

In experiment [1], `CCCNC(=O)C(F)(F)C(=O)[C@@H](NC(=O)[C@@H]1CCCN1C(=O)[C@@H](NC(=O)c1ccc(OC)cc1)C(C)C)C(C)C` returned an inhibition in vivo at 10 mg/kg of 17%. In experiment [2], this compound came in with a Ki of 8.9 nM.

In the case of `COC(=O)c1ccc2oc(C(=O)[C@@H](NC(=O)[C@@H]3CCCN3C(=O)[C@@H](NC(=O)OCc3ccccc3)C(C)C)C(C)C)nc2c1`, the inhibition in vivo at 10 mg/kg in experiment [1] was found to be 34%. The compound further displayed a Ki in experiment [2] of 0.58 nM.

Consider `CC(C)[C@H](NC(=O)OC1CCCC1)C(=O)N1CCC[C@H]1C(=O)N[C@H](C(=O)C(F)(F)F)C(C)C`, for which the inhibition in vivo at 10 mg/kg in experiment [1] was found to be 43%. For the same compound, the inhibition constant Ki in experiment [2] is 1.9 nM.

`COc1ccc(C(=O)N[C@H](C(=O)N2CCC[C@H]2C(=O)N[C@H](C(=O)c2nc3cc(NC(C)=O)ccc3o2)C(C)C)C(C)C)cc1`: testing at 10 mg/kg in experiment [1] gave an inhibition in vivo of 11%. In addition, the inhibitory constant (Ki) in experiment [2] turned out to be 8 nM.

As for `COc1ccc(C(=O)N[C@H](C(=O)N2CCC[C@H]2C(=O)N[C@H](C(=O)C(F)(F)CNCc2ccccc2)C(C)C)C(C)C)cc1`, 10 mg/kg produced 17% inhibition in vivo in experiment [1].

In turn, `CC(C)[C@H](NC(=O)Oc1ccccc1)C(=O)N1CCC[C@H]1C(=O)N[C@H](C(=O)C(F)(F)F)C(C)C` yielded an inhibition in vivo at 10 mg/kg in experiment [1] of 93%. Further, the inhibitory constant (Ki) in experiment [2] came out at 1.5 nM.

The compound `CC(C)[C@H](NC(=O)OCc1ccccc1)C(=O)N1CCC[C@H]1C(=O)N[C@H](C(=O)C(F)(F)C(N)=O)C(C)C` displayed an inhibition in vivo at 10 mg/kg in experiment [1] of 17%.

In turn, `CC(C)[C@H](NC(=O)COc1ccccc1)C(=O)N1CCC[C@H]1C(=O)N[C@H](C(=O)C(F)(F)F)C(C)C` yielded an inhibition in vivo at 10 mg/kg in experiment [1] of 8%. Further, the inhibitory constant (Ki) in experiment [2] amounted to 17 nM.

In experiment [1], `CCCCOC(=O)NCC(F)(F)C(=O)[C@@H](NC(=O)[C@@H]1CCCN1C(=O)[C@@H](NC(=O)Oc1ccccc1)C(C)C)C(C)C` had an inhibition in vivo at 10 mg/kg of 0%. Moreover, the affinity in experiment [2] corresponds to a Ki of 0.35 nM.

The compound `COC(=O)c1ccc2nc(C(=O)[C@@H](NC(=O)[C@@H]3CCCN3C(=O)[C@@H](NC(=O)Oc3ccccc3)C(C)C)C(C)C)oc2c1` displayed an inhibition in vivo at 10 mg/kg in experiment [1] of 27%. In experiment [2], this compound came in with a Ki of 0.64 nM.

Regarding `COc1ccc(C(=O)N[C@H](C(=O)N2CCC[C@H]2C(=O)N[C@H](C(=O)C(F)(F)CNC(=O)c2ccccc2)C(C)C)C(C)C)cc1`, the inhibition in vivo at 10 mg/kg in experiment [1] came to 18%. The affinity in experiment [2] corresponds to a Ki of 6.4 nM.

On to `COC(=O)c1ccc2oc(C(=O)[C@@H](NC(=O)[C@@H]3CCCN3C(=O)[C@@H](NC(=O)Oc3ccccc3)C(C)C)C(C)C)nc2c1`, for which the inhibition in vivo at 10 mg/kg in experiment [1] came out at 12%. In experiment [2], this compound displayed an inhibitory constant (Ki) of 0.64 nM.

For `COc1ccc(C(=O)N[C@H](C(=O)N2CCC[C@H]2C(=O)N[C@H](C(=O)C(F)(F)CN)C(C)C)C(C)C)cc1`, at 10 mg/kg the inhibition in vivo in experiment [1] was 10%.

Regarding `CC(C)OC(=O)N[C@H](C(=O)N1CCC[C@H]1C(=O)NC(C(=O)C(F)(F)F)C(C)C)C(C)C` (stereo partly specified), at 10 mg/kg the inhibition in vivo in experiment [1] was 69%. Further, the Ki in experiment [2] was 33 nM.

For the compound `CC(=O)NCC(F)(F)C(=O)[C@@H](NC(=O)[C@@H]1CCCN1C(=O)[C@@H](NC(=O)Oc1ccccc1)C(C)C)C(C)C`, in experiment [1], the inhibition in vivo at 10 mg/kg worked out at 42%. In experiment [2], this compound showed a Ki of 2.3 nM.

Take `CC(C)[C@H](NC(=O)Oc1ccccc1)C(=O)N1CCC[C@H]1C(=O)N[C@H](C(=O)C(F)(F)CN)C(C)C`: at 10 mg/kg the inhibition in vivo in experiment [1] was 45%.

In turn, `CNC(=O)C(F)(F)C(=O)[C@@H](NC(=O)[C@@H]1CCCN1C(=O)[C@@H](NC(=O)Oc1ccccc1)C(C)C)C(C)C` showed an inhibition in vivo at 10 mg/kg in experiment [1] of 80%.

In experiment [1], `CC(C)[C@H](NC(=O)OCc1ccccc1)C(=O)N1CCC[C@H]1C(=O)N[C@H](C(=O)C(F)(F)CNCc1ccccc1)C(C)C` had an inhibition in vivo at 10 mg/kg of 0%.

Regarding `CC(C)[C@H](NC(=O)[C@@H]1CCCN1C(=O)[C@@H](NC(=O)OCc1ccccc1)C(C)C)C(=O)c1nc2ccccc2o1`, the inhibition in vivo at 10 mg/kg in experiment [1] stood at 0%. In experiment [2], this compound showed an inhibitory constant (Ki) of 4.7 nM.

In experiment [1], `CC(C)[C@H](NC(=O)OCc1ccccc1)C(=O)N1CCC[C@H]1C(=O)N[C@H](C(=O)C(F)(F)F)C(C)C` (Cbz-Val-Pro-Val-CF3) returned an inhibition in vivo at 10 mg/kg of 42%.

`COc1ccc(C(=O)N[C@H](C(=O)N2CCC[C@H]2C(=O)N[C@H](C(=O)C(F)(F)C(=O)NCc2ccccn2)C(C)C)C(C)C)cc1`: the inhibition in vivo at 10 mg/kg in experiment [1] amounted to 43%. The same compound showed a Ki in experiment [2] of 3.1 nM.

In turn, `COc1ccc(C(=O)N[C@H](C(=O)N2CCC[C@H]2C(=O)N[C@@H](C(=O)C(F)(F)C(=O)NCc2ccccn2)C(C)C)C(C)C)cc1` gave an inhibition in vivo at 10 mg/kg in experiment [1] of 31%. The same compound displayed a Ki in experiment [2] of 58 nM.

As to `CC(C)[C@H](NC(=O)Oc1ccccc1)C(=O)N1CCC[C@H]1C(=O)N[C@H](C(=O)C(F)(F)CNC(=O)c1cccnc1)C(C)C`, in experiment [1], the inhibition in vivo at 10 mg/kg came out at 46%. In experiment [2], this compound gave an inhibitory constant (Ki) of 0.35 nM.

`CC(C)[C@H](NC(=O)c1ccc(C(=O)NS(=O)(=O)c2ccccc2)cc1)C(=O)N1CCC[C@H]1C(=O)N[C@H](C(=O)C(F)(F)C(=O)NCCc1ccccc1)C(C)C`: the affinity in experiment [2], expressed as Ki, was 0.06 nM.

In the case of `COC(=O)c1ccc2oc(C(=O)[C@@H](NC(=O)[C@@H]3CCCN3C(=O)[C@@H](NC(=O)c3ccc(OC)cc3)C(C)C)C(C)C)nc2c1`, in experiment [1], the inhibition in vivo at 10 mg/kg stood at 0%. This compound showed an inhibition constant (Ki) in experiment [2] of 0.65 nM.

In general, ED50 refers to the midpoint of the dose-response relation. Lower therefore signals an effect at a small dose. For the compound `CC(C)OC(=O)N[C@H](C(=O)N1CCC[C@H]1C(=O)N[C@H](C(=O)C(F)(F)F)C(C)C)C(C)C`, the ED50 in experiment [3] was 3 mg/kg. In experiment [1], this compound yielded an inhibition in vivo at 10 mg/kg of 80%. In experiment [2], this compound returned a Ki of 5.8 nM.

As for `CC(C)COC(=O)N[C@H](C(=O)N1CCC[C@H]1C(=O)N[C@H](C(=O)C(F)(F)F)C(C)C)C(C)C`, in experiment [1], testing at 10 mg/kg gave an inhibition in vivo of 3%. The compound further registered an inhibition constant (Ki) in experiment [2] of 20 nM.

With `CNC(=O)C(F)(F)C(=O)[C@@H](NC(=O)[C@@H]1CCCN1C(=O)[C@@H](NC(=O)OCc1ccccc1)C(C)C)C(C)C`, at 10 mg/kg the inhibition in vivo in experiment [1] was 7%.

For the compound `CNC(=O)C(F)(F)C(=O)[C@@H](NC(=O)[C@@H]1CCCN1C(=O)[C@@H](NC(=O)c1ccc(OC)cc1)C(C)C)C(C)C`, testing at 10 mg/kg in experiment [1] gave an inhibition in vivo of 25%. Moreover, the Ki in experiment [2] came out at 3.8 nM.

For `CC(C)[C@H](NC(=O)Oc1ccccc1)C(=O)N1CCC[C@H]1C(=O)N[C@H](C(=O)C(F)(F)C(=O)NCc1ccccn1)C(C)C`, in experiment [1], the inhibition in vivo at 10 mg/kg was 69%. This compound yielded an inhibitory constant (Ki) in experiment [2] of 1.7 nM.

On to `CC(C)[C@H](NC(=O)Oc1ccccc1)C(=O)N1CCC[C@H]1C(=O)N[C@H](C(=O)C(F)(F)CNCc1ccccc1)C(C)C`, for which at 10 mg/kg the inhibition in vivo in experiment [1] was 18%.

Compound `CCOC(=O)N[C@H](C(=O)N1CCC[C@H]1C(=O)N[C@H](C(=O)C(F)(F)F)C(C)C)C(C)C` returned an inhibition in vivo at 10 mg/kg in experiment [1] of 74%. In experiment [2], this compound came in with an inhibitory constant (Ki) of 43 nM.

In experiment [1], `CCCCOC(=O)NCC(F)(F)C(=O)[C@@H](NC(=O)[C@@H]1CCCN1C(=O)[C@@H](NC(=O)c1ccc(OC)cc1)C(C)C)C(C)C` had an inhibition in vivo at 10 mg/kg of 24%. In experiment [2], this compound displayed a Ki of 3.4 nM.
